Here are results for ten compounds from ChEMBL document CHEMBL1201862, “PubChem BioAssay data set” (2004).

The structures appear in SMILES notation.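 Cultured in 96-well plates, cells were exposed to test compound for 48 hours across five concentrations. GI50 is the concentration that inhibits growth by half.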 Activity calls are given as the source filed them. No stated cut-off is given here; in the data, active = GI50 up to about 1.1 µM and inactive = higher. Where only a bound is given, the exact number is not on record here.

Common to all, as to assay: NCI anticancer screen, dose series, 48 h
Assay [1] relates to A498.
Assay [2] deals with A549.
The test system of assay [3] is BT-549.
The subject of assay [4] is DU-145.
Assay [5] concerns HCT-15.
For assay [6], the system named is HL-60.
Assay [7] concerns IGROV-1.
Assay [8] concerns KM12.
Assay [9] deals with MDA-MB-231.
Assay [10] concerns MDA-MB-435.
In assay [11] the test system is Malme-3M.
Assay [12] has as its system NCI-H226.
For assay [13], the system named is OVCAR-5.
For assay [14], the system named is SF-268.
For assay [15], the system named is SK-MEL-28.
Assay [16] concerns SK-MEL-5.
The subject of assay [17] is SN12C.
Assay [18] deals with SR.
Assay [19] concerns TK-10.
The subject of assay [20] is U-251.

For the compound `COc1c(C)c2c(c(=O)c3c(C)cccc3n2C)c2c1c(=O)c1c(C)cccc1n2C`, the GI50 is > 10 µM (inactive) in assay [1]; > 10 µM (inactive) in [2]; > 10 µM (inactive) in assay [3]; > 10 µM (inactive) in [4]; over 10 µM in assay [5]; > 10 µM (inactive) in [6]. Besides, the GI50 in assay [7], in assay [8], in assay [9], in assay [10], in assay [11] and in assay [12] was > 10 µM (inactive) throughout. The GI50 in assay [13], in [14], in assay [15], in [16], in assay [17] and in assay [18] was > 10 µM (inactive) in each case. Besides, the GI50 in [19] and in assay [20] was > 10 µM (inactive) throughout.
With `C=C1CCCC2[C@](C)(CC3=C(Cl)C(=O)C=C(OC)C3=O)C(C)CC[C@]12C` (stereo not given in full), the GI50 in [1] is 8.49 µM (inactive); in assay [2] it was 5.27 µM (inactive); in assay [3], 5 µM (inactive); in assay [4], 8.04 µM (inactive); in [5], 3.46 µM; in assay [6], 1.9 µM (inactive). Besides, the GI50 is 1.9 µM (inactive) in assay [7]; 2.26 µM (inactive) in assay [8]; 7.6 µM (inactive) in assay [9]; 6.62 µM (inactive) in [10]; 8.18 µM (inactive) in assay [11]; 7.6 µM (inactive) in assay [12]. Besides, the GI50 in [13] is 2.94 µM (inactive); in assay [14], 5.09 µM (inactive); in assay [15], 7.31 µM (inactive); in assay [16], 6.43 µM (inactive); in [17], 5.77 µM (inactive); in assay [18], 1.47 µM (inactive). Besides, the GI50 is 4.34 µM (inactive) in [19] and 3.44 µM (inactive) in [20].
As to `CCOC(=O)c1c(Nc2ccccc2)sc2cccnc12`, the GI50 in assay [1] is 3.56 µM (inactive); in assay [2], 3.24 µM (inactive); in [3] it was 18.7 µM (inactive); in assay [4], 28.7 µM (inactive); in [5], 21.7 µM; in assay [6] it was 15.1 µM (inactive). In addition, the GI50 in [7] is 23 µM (inactive); in assay [8], 18.9 µM (inactive); in assay [9] it was 6.56 µM (inactive); in assay [10] it was 22.6 µM (inactive); in assay [11] it was 30.3 µM (inactive); in assay [12], 5.68 µM (inactive). In addition, the GI50 is 12.4 µM (inactive) in assay [13]; 29.9 µM (inactive) in assay [14]; 20.8 µM (inactive) in [15]; 3.56 µM (inactive) in [16]; 9.18 µM (inactive) in [17]; 9.44 µM (inactive) in assay [18]. In addition, the GI50 in [19] was 11.2 µM (inactive); in [20], 2.43 µM (inactive).
As to `O=[N+]([O-])c1cc(CCl)ccc1CCl`, the GI50 in assay [1] is 6.59 µM (inactive); in [2], 5.79 µM (inactive); in assay [3] it was 3.07 µM (inactive); in [4], 1.63 µM (inactive); in assay [5] it was 1.84 µM; in [6], 2.11 µM (inactive). The GI50 in assay [7] is 1.56 µM (inactive); in assay [8], 1.66 µM (inactive); in assay [9], 2.33 µM (inactive); in assay [10] it was 2.12 µM (inactive); in assay [11] it was 1.74 µM (inactive); in [12], 3.78 µM (inactive). Also, the GI50 was 2.62 µM (inactive) in [13]; 1.99 µM (inactive) in assay [14]; 2.06 µM (inactive) in assay [15]; 2.67 µM (inactive) in assay [16]; 1.53 µM (inactive) in assay [17]; 0.893 µM (active) in [18]. The GI50 in assay [19] is 2.96 µM (inactive); in assay [20], 1.75 µM (inactive).
For the compound `CC(C)C(C/C=C1/CC(CO)(COC(=O)C(C)(C)C)OC1=O)C(C)C` (stereo not given), the GI50 is 7.67 µM (inactive) in assay [1]; 1.09 µM (active) in assay [2]; 13.5 µM (inactive) in [3]; 11.1 µM (inactive) in assay [4]; 16.9 µM in assay [5]; 0.105 µM (active) in assay [6]. Further, the GI50 in assay [7] was 16.2 µM (inactive); in [8], 13.8 µM (inactive); in assay [9], 3.25 µM (inactive); in assay [10] it was 8.59 µM (inactive); in assay [11] it was 3.62 µM (inactive); in [12], 7.57 µM (inactive). Moreover, the GI50 in assay [13] was 11.6 µM (inactive); in [14], 10.8 µM (inactive); in [15] it was 15.9 µM (inactive); in assay [16], 4.52 µM (inactive); in assay [17], 11.1 µM (inactive); in assay [18], 14.9 µM (inactive). Further, the GI50 in assay [19] was 3.72 µM (inactive); in assay [20], 12.6 µM (inactive).
Regarding `Cc1cc(S(=O)(=O)NC2=NNC(C)CN2)c(S)cc1Cl` (stereo not given), the GI50 in assay [1] was 21.6 µM (inactive); in [2], 37.9 µM (inactive); in assay [3], 49.3 µM (inactive); in assay [4], 75.7 µM (inactive); in assay [5], 32.1 µM; in [6], > 100 µM (inactive). For the same compound, the GI50 in assay [7] was 23.9 µM (inactive); in [8], 61.8 µM (inactive); in assay [9] it was 62.2 µM (inactive); in assay [10], 32.2 µM (inactive); in [11] it was 16.7 µM (inactive); in assay [12], 45.2 µM (inactive). Moreover, the GI50 in assay [13] was 93.3 µM (inactive); in [14] it was 15.9 µM (inactive); in [15] it was 41.6 µM (inactive); in assay [16], 35.1 µM (inactive); in assay [17], 80.5 µM (inactive); in assay [18], 37.2 µM (inactive). Besides, the figures for the GI50 in [19] and in assay [20] were > 100 µM (inactive) and 39.2 µM (inactive), respectively.
In the case of `COC(=O)[C@H](CC(C)C)NC1=C(Cl)C(=O)c2c(O)ccc(O)c2C1=O`, the GI50 is > 10 µM (inactive) in [1]; 7.24 µM (inactive) in [2]; > 10 µM (inactive) in [3]; > 10 µM (inactive) in [4]; 3.05 µM in [5]; 8.02 µM (inactive) in assay [6]. Besides, the GI50 in assay [7] is > 10 µM (inactive); in assay [8] it was 6.43 µM (inactive); in assay [9] it was > 10 µM (inactive); in assay [10], 8.89 µM (inactive); in [11] it was 0.887 µM (active); in assay [12], > 10 µM (inactive). The GI50 in assay [13], in [14], in assay [15], in assay [16], in [17] and in [18] was > 10 µM (inactive) each time. Further, the GI50 in [19] and in assay [20] was > 10 µM (inactive) in each case.
Consider `O=c1c2ccccc2nc(-c2ccccc2)n1/N=C/c1ccccc1[N+](=O)[O-]`, for which the GI50 in [1] was > 75.2 µM (inactive); in [2] it was > 100 µM (inactive); in [3] it was 31.3 µM (inactive); in assay [4], > 100 µM (inactive); in assay [5] it was over 100 µM; in assay [6], > 100 µM (inactive). Besides, the GI50 was > 69.7 µM (inactive) in assay [7]; 57.4 µM (inactive) in assay [8]; 17.7 µM (inactive) in assay [9]; > 100 µM (inactive) in assay [10]; > 100 µM (inactive) in assay [11]; 61.1 µM (inactive) in [12]. The GI50 in assay [13] is > 100 µM (inactive); in assay [14], 16.3 µM (inactive); in [15] it was > 100 µM (inactive); in assay [16] it was > 75.2 µM (inactive); in assay [17] it was > 74.8 µM (inactive); in assay [18], > 100 µM (inactive). Besides, the values for the GI50 in [19] and in [20] were 28.3 µM (inactive) and 16.1 µM (inactive), respectively.
On to `COc1cccc2cc(C(=O)NC34CC5CC(CC(C5)C3)C4)c(=N)oc12`, for which the GI50 in assay [1] was > 100 µM (inactive); in assay [2] it was 64.7 µM (inactive); in [3], > 80.7 µM (inactive); in [4], > 100 µM (inactive); in assay [5] it was 49.8 µM; in assay [6] it was 3.13 µM (inactive). For the same compound, the GI50 was > 46.3 µM (inactive) in assay [7]; 54.6 µM (inactive) in assay [8]; > 100 µM (inactive) in assay [9]; > 82.4 µM (inactive) in assay [10]; > 86.5 µM (inactive) in [11]; > 61 µM (inactive) in [12]. In addition, the GI50 was > 100 µM (inactive) in assay [13]; 78.9 µM (inactive) in assay [14]; > 71 µM (inactive) in assay [15]; > 69.2 µM (inactive) in assay [16]; > 100 µM (inactive) in assay [17]; 10.2 µM (inactive) in [18]. Besides, the results for the GI50 in assay [19] and in assay [20] were 64 µM (inactive) and 55.3 µM (inactive), respectively.
Turning to `Cc1cc2nc(CC(C(F)(F)F)C(F)(F)F)oc2cc1C`, the GI50 in assay [1] was 5.71 µM (inactive); in [2], 5.79 µM (inactive); in assay [3], 0.452 µM (active); in assay [4] it was 4.36 µM (inactive); in assay [5] it was 3.47 µM; in [6], 0.968 µM (active). Further, the GI50 in assay [7] is 1.97 µM (inactive); in [8], 3 µM (inactive); in [9], 2.45 µM (inactive); in [10] it was 1.96 µM (inactive); in assay [11], 3.34 µM (inactive); in assay [12] it was 1.88 µM (inactive). The GI50 in [13] was 7.41 µM (inactive); in assay [14], 2.49 µM (inactive); in assay [15], 3.24 µM (inactive); in [16] it was 4.32 µM (inactive); in [17] it was 1.03 µM (active); in assay [18] it was 0.0276 µM (active). In addition, the GI50 was 5.21 µM (inactive) in assay [19] and 3.15 µM (inactive) in assay [20].
